According to patent US20250195521A1 (Revolution Medicines, Inc., priority 2020, published 2025):
pEC50, pIC50: −log10 of the molar value. Where two headings read alike, the source gives them in different places.

Columns and labels:
[1] = system: K-Ras G12C (NCI-H358 cells); test: Potency assay: pERK in NCI-H358 cells; assay type: cell-based, human; details: NCI-H358 cells, 4 hours; read-out: pERK EC50 (H358 KRAS G12C)
Procedure, shortened: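 Cells plated the day before were exposed for 4 h at 37° C, 5% CO2 to a 10-point, 3-fold DMSO dilution series (10 mM top stock), in duplicate. Phospho-ERK was read by AlphaLISA SureFire Ultra or by In-Cell Western with DRAQ5 DNA stain, and IC50 came from a 4-parameter sigmoidal fit.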

[2] = system: NCI-H358 cells (K-Ras G12C); test: CellTiter-Glo cell viability, NCI-H358; assay type: cell-based, human; details: K-Ras G12C, 5-day treatment, read-out: H358 Cell Viability IC50
Procedure, shortened: (§1)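 Compounds dispensed directly onto seeded cells; on day 5 plates equilibrated ~30 min to room temperature and luminescence read. Signal normalized to DMSO average (%) and fitted by four-parameter logistic.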

[3] = system: Capan-1 cells (K-Ras G12V); test: CellTiter-Glo cell viability, Capan-1; assay type: cell-based, human; details: K-Ras G12V, 5-day treatment, read-out: Capan-1 Cell Viability IC50
Procedure, shortened: as §1

[4] = molecular target: KRAS G12D (Homo sapiens (Human), UniProt P01116+P62937, G12D); test: Ras-Raf disruption/FRET/MOA assay (BRAF RBD, Cyclophilin A); assay type: biochemical; details: read-out: KRAS G12D FRET IC50
Procedure, shortened: (§2)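 TR-FRET readout: anti-His Eu-W1024 (10 nM) and anti-GST allophycocyanin (50 nM) added after 3 h, 25° C compound incubation, then 1.5 h more. Decrease in FRET ratio versus DMSO wells marks Ras:RAF disruption; IC50 reported.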

[5] = molecular target: KRAS Q61H (Homo sapiens (Human), UniProt P01116+P62937, Q61H); test: as above; assay type: biochemical
Procedure, shortened: as §2

[6] = molecular target: NRAS WT (Homo sapiens (Human), UniProt P01111+P62937); test: as above; assay type: biochemical
Procedure, shortened: (§3)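 25 μM tagless Cyclophilin A, 12.5 nM His6-Ras-GMPPNP and 50 nM GST-BRAF RBD in HEPES pH 7.3 buffer with 5 mM MgCl2, with compound (10-point 3-fold series from 30 μM final) for 3 h at 25 °C. Anti-His Eu and anti-GST APC then added for 1.5 h. IC50 from TR-FRET ratio decrease versus DMSO.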

[7] = molecular target: NRAS Q61K (Homo sapiens (Human), UniProt P01111+P62937, Q61K); test: as above; assay type: biochemical
Procedure, shortened: as §3

[8] = molecular target: KRAS G13C (Homo sapiens (Human), UniProt P01116+P62937, G13C); test: as above; assay type: biochemical; details: read-out: KRAS G13C FRET IC50
Procedure, shortened: as §2

[9] = molecular target: NRAS Q61R (Homo sapiens (Human), UniProt P01111+P62937, Q61R); test: as above; assay type: biochemical
Procedure, shortened: as §3

[10] = molecular target: KRAS G12C (Homo sapiens (Human), UniProt P01116+P62937, G12C); test: as above; assay type: biochemical; details: read-out: KRAS G12C FRET IC50
Procedure, shortened: as §2

[11] = molecular target: NRAS G12C (Homo sapiens (Human), UniProt P01111+P62937, G12C); test: as above; assay type: biochemical; details: read-out: NRAS G12C FRET data IC50
Procedure, shortened: as §3

[12] = molecular target: KRAS G12S (Homo sapiens (Human), UniProt P01116+P62937, G12S); test: as above; assay type: biochemical; details: read-out: KRAS G12S FRET IC50
Procedure, shortened: as §2

[13] = molecular target: KRAS G12V (Homo sapiens (Human), UniProt P01116+P62937, G12V); test: as above; assay type: biochemical; details: read-out: KRAS G12V FRET IC50
Procedure, shortened: as §2

[14] = molecular target: KRAS WT (Homo sapiens (Human), UniProt P01116+P62937); test: as above; assay type: biochemical; details: read-out: KRAS WT FRET data IC50
Procedure, shortened: as §2

[15] = molecular target: KRAS G13D (Homo sapiens (Human), UniProt P01116+P62937, G13D); test: as above; assay type: biochemical; details: read-out: KRAS G13D FRET data IC50
Procedure, shortened: as §2

Chain of NRAS G12C (P01111 whole entry G12C): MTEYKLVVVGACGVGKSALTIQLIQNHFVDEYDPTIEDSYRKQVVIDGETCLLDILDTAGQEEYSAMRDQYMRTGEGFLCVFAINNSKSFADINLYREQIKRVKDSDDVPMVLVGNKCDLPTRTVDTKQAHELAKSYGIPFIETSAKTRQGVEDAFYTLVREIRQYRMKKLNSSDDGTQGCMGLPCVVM
Chain of NRAS G12C (P62937 whole entry): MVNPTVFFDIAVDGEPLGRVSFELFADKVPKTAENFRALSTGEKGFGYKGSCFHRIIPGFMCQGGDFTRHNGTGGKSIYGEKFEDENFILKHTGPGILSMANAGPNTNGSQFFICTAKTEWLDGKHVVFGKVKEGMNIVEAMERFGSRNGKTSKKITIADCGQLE
Chain of KRAS G12S (P01116 other isoform, or with tags, fused parts or gaps G12S): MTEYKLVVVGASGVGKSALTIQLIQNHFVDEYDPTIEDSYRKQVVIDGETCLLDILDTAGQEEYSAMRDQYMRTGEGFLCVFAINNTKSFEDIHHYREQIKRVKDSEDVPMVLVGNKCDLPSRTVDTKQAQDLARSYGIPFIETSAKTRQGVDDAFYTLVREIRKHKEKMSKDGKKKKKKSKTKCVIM
Chain of KRAS G12S (P62937 whole entry): as the sequence (P62937 whole entry) above
Chain of KRAS G12D (P01116 other isoform, or with tags, fused parts or gaps G12D): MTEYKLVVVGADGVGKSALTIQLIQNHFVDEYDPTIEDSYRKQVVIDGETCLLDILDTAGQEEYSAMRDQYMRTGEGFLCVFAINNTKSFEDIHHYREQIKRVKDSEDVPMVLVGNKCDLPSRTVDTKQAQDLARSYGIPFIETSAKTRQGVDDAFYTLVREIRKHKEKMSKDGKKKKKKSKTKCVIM
Chain of KRAS G12D (P62937 whole entry): as the sequence (P62937 whole entry) above
Chain of KRAS Q61H (P01116 other isoform, or with tags, fused parts or gaps Q61H): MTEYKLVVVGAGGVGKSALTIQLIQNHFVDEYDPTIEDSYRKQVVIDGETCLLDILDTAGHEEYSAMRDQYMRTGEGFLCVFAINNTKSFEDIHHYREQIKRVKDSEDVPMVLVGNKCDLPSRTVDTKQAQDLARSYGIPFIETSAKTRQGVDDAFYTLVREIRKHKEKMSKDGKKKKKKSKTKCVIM
Chain of KRAS Q61H (P62937 whole entry): as the sequence (P62937 whole entry) above
Chain of NRAS Q61K (P01111 whole entry Q61K): as the sequence (P01111 whole entry G12C) above, with C12G, Q61K counted along it
Chain of NRAS Q61K (P62937 whole entry): as the sequence (P62937 whole entry) above
Chain of KRAS G12V (P01116 other isoform, or with tags, fused parts or gaps G12V): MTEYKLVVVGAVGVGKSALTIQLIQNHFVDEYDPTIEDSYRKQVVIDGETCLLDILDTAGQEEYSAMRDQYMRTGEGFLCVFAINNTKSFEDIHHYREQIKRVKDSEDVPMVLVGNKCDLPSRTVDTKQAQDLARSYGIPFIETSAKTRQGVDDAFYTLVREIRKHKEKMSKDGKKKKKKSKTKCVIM
Chain of KRAS G12V (P62937 whole entry): as the sequence (P62937 whole entry) above
Chain of KRAS G13C (P01116 other isoform, or with tags, fused parts or gaps G13C): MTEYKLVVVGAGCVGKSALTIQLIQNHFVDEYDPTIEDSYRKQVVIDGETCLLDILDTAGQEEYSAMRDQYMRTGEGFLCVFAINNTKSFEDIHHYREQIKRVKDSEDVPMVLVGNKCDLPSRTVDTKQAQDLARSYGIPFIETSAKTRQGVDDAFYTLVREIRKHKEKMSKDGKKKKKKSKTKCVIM
Chain of KRAS G13C (P62937 whole entry): as the sequence (P62937 whole entry) above
Chain of NRAS WT (P01111 whole entry): as the sequence (P01111 whole entry G12C) above, with C12G counted along it
Chain of NRAS WT (P62937 whole entry): as the sequence (P62937 whole entry) above
Chain of KRAS G13D (P01116 other isoform, or with tags, fused parts or gaps G13D): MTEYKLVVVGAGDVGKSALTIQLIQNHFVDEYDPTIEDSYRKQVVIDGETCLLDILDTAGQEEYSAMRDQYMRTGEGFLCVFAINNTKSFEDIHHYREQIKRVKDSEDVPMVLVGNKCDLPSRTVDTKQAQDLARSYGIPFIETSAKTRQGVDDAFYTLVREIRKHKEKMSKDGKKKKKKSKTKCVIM
Chain of KRAS G13D (P62937 whole entry): as the sequence (P62937 whole entry) above
Chain of KRAS G12C (P01116-2 other isoform, or with tags, fused parts or gaps G12C): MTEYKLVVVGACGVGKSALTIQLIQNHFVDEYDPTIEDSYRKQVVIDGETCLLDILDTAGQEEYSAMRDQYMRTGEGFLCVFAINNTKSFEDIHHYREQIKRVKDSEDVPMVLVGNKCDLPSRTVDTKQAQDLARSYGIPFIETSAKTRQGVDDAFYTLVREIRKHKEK
Chain of KRAS G12C (P62937 whole entry): as the sequence (P62937 whole entry) above
Chain of KRAS WT (P01116 other isoform, or with tags, fused parts or gaps): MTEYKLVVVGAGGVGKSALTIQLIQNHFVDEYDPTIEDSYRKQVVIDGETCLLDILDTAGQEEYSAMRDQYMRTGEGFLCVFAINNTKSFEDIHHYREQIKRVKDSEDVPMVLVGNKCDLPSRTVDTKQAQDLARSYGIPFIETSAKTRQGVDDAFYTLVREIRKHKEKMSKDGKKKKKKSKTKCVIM
Chain of KRAS WT (P62937 whole entry): as the sequence (P62937 whole entry) above
Chain of NRAS Q61R (P01111 whole entry Q61R): as the sequence (P01111 whole entry G12C) above, with C12G, Q61R counted along it
Chain of NRAS Q61R (P62937 whole entry): as the sequence (P62937 whole entry) above

Row | pEC50 [1] | pIC50 [2] | pIC50 [4] | pIC50 [5] | pIC50 [6] | pIC50 [7] | pIC50 [8] | pIC50 [9] | pIC50 ([2]; Homo sapiens, NCI-H358, 120 h) | pIC50 [10] | pIC50 [11] | pIC50 [12] | pIC50 [13] | pIC50 [14] | pIC50 [15] | SMILES | pIC50 [3] | pIC50 ([3]; Homo sapiens, CAPAN-1, 120 h)
1 | > 5.30 | 7.00 to 8.00 | 5.00 to 6.00 | 6.00 to 7.00 | 6.00 to 7.00 | 7.00 to 8.00 | 6.00 to 7.00 | 6.00 to 7.00 | – | – | – | – | – | – | – | CCn1c(-c2cccnc2[C@H](C)OC)c2c3cc(ccc31)-c1cc(O)cc(c1)C[C@H](NC(=O)[C@H](C(C)C)N(C)C(=O)N1CC(N(C)C)C1)C(=O)N1CCC[C@H](N1)C(=O)OCC(C)(C)C2 [Compound A170] | 7.00 to 8.00 | –
2 | – | – | 6.00 to 7.00 | 6.00 to 7.00 | 6.00 to 7.00 | 6.00 to 7.00 | 6.00 to 7.00 | 6.00 to 7.00 | 6.00 to 7.00 | 6.00 to 7.00 | 6.00 to 7.00 | 6.00 to 7.00 | 6.00 to 7.00 | 6.00 to 7.00 | 6.00 to 7.00 | CCn1c(-c2cccnc2[C@H](C)OC)c2c3cc(ccc31)-c1csc(n1)C[C@H](NC(=O)N1CCOCC1)C(=O)N1CCC[C@H](N1)C(=O)OCC(C)(C)C2 [Compound A270] | – | 5.00 to 6.00
3 | – | – | 5.00 to 6.00 | 6.00 to 7.00 | 6.00 to 7.00 | 6.00 to 7.00 | 6.00 to 7.00 | 6.00 to 7.00 | 6.00 to 7.00 | 6.00 to 7.00 | 6.00 to 7.00 | 6.00 to 7.00 | 5.00 to 6.00 | 6.00 to 7.00 | 5.00 to 6.00 | CCn1c(-c2cccnc2[C@H](C)OC)c2c3cc(ccc31)-c1csc(n1)C[C@H](NC(=O)[C@H](C(C)C)N(C)C(=O)N1[C@H](C)COC[C@@H]1C)C(=O)N1CCC[C@H](N1)C(=O)OCC(C)(C)C2 [Compound A276] | – | 6.00 to 7.00
4 | – | – | 5.00 to 6.00 | 6.00 to 7.00 | 6.00 to 7.00 | 6.00 to 7.00 | 6.00 to 7.00 | 6.00 to 7.00 | 7.00 to 8.00 | 6.00 to 7.00 | 7.00 to 8.00 | 6.00 to 7.00 | 6.00 to 7.00 | 6.00 to 7.00 | 6.00 to 7.00 | CCn1c(-c2cccnc2[C@H](C)OC)c2c3cc(ccc31)-c1csc(n1)C[C@H](NC(=O)[C@H](C(C)C)N(C)C(=O)N1CCS(=O)(=O)CC1)C(=O)N1CCC[C@H](N1)C(=O)OCC(C)(C)C2 [Compound A357] | – | 7.00 to 8.00
5 | – | – | 6.00 to 7.00 | 6.00 to 7.00 | 6.00 to 7.00 | 6.00 to 7.00 | 6.00 to 7.00 | 5.00 to 6.00 | 6.00 to 7.00 | 6.00 to 7.00 | 6.00 to 7.00 | 6.00 to 7.00 | 5.00 to 6.00 | 6.00 to 7.00 | 6.00 to 7.00 | CCn1c(-c2cccnc2[C@H](C)OC)c2c3cc(ccc31)-c1csc(n1)C[C@H](NC(=O)[C@H](C(C)C)N(C)C(=O)[C@@H]1[C@@H]3CN(C)C[C@@H]31)C(=O)N1CCC[C@H](N1)C(=O)OCC(C)(C)C2 [Compound A447] | – | 6.00 to 7.00
6 | – | – | < 5.00 | 6.00 to 7.00 | 5.00 to 6.00 | 6.00 to 7.00 | 5.00 to 6.00 | 6.00 to 7.00 | 5.00 to 6.00 | 6.00 to 7.00 | 6.00 to 7.00 | 5.00 to 6.00 | 5.00 to 6.00 | 5.00 to 6.00 | – | CCn1c(-c2cccnc2[C@H](C)OC)c2c3cc(ccc31)-c1csc(n1)C[C@H](NC(=O)[C@H](C(C)C)N(C)C(=O)N1CC3(CCCN(C)C3=O)C1)C(=O)N1CCC[C@H](N1)C(=O)OCC(C)(C)C2 [Compound A453] | – | 5.00 to 6.00
